The values below come from patent US20230372350A1, “ASTROCYTIC TRPA1 CHANNEL INHIBITION AS A NOVEL NEUROPROTECTIVE THERAPEUTIC TARGET IN THE PRODROMAL PHASES OF ALZHEIMER'S DISEASE” (priority 2020, published 2023).

Assay [1] has as its system APP/PS1-21 and WT mice. In words: Chronic intraperitoneal treatment: Barnes maze. It counts as in vivo, mouse. Conditions: 6-months old. As to the method: This solution is then diluted to 1 μg/μl in an isotonic solution containing 1% Pluronic F-127 and 0.9% NaCl. The animals are injected daily intraperitoneally at a dose of 5 mg/kg of body mass. Sterile 0.5 ml BD MicroFine syringes with no dead volume, equipped with a 30G (0.3 mm) needle are used for the injections. The injection is started from the 14th postnatal day (appearance of the expression of the Thy1gene promoter in the hippocampus, triggering the overexpression of Aβ in the APP/PS1-21 murine model) The mice were placed in the center of a well-lit open platform (BioSeb, diameter 120 cm). The platform includes 20 holes (diameter 5 cm) with an escape box (target) attached below any of the holes. On the first day of training, the mice were first placed in the middle of the platform and gently guided to the target after 5 minutes of free exploration. Once the mice entered the escape box, they remained there for 1 minute before being returned to their cage. During the 3 days of the training/acquisition phase, the mice performed 3 trials per day with an interval between trials of 20 minutes. The mice had 180 seconds to find the escape box or were gently guided thereto. On day 4 (test day), the escape box was removed and the mice were allowed to freely explore the maze for 60 seconds. The time taken to reach the target (latency) and the exploration time of the target area (target hole±1) were analyzed. All data were recorded and analyzed with EthoVision XT9 (Noldus). The working memory is perhaps one of the most studied aspects of memory impairment in Alzheimer's disease. The inventors administered daily the TRPA1 channel specific inhibitor (HC030031) or the carrier intraperitoneally (5 mg/kg of body mass) from the 14th postnatal day up to 6 months in APP/PS1-21 and wild-type WT mice.

For assay [2], the system named is CA1 pyramidal neurons of APP/PS1-21 and WT mice. As to the kind of experiment: Chronic intraperitoneal treatment: whole-cell recording of sEPSCs of CA1 pyramidal neurons. It counts as in vivo, mouse. The method, then: The used model is a transgenic murine model obtained on a C57BL/6J genetic background which co-expresses the mutated human form of the amyloid precursor protein (mutated APP KM670/671NL) and of presenilin 1 (mutated PS1 L166P) under the control of the neural promoter Thy1. The presence of these two mutations allows increased production of the Aβ peptide from the 14th postnatal day. This leads to cerebral amyloidosis with the appearance of the first senile plaques around 8 postnatal weeks. This amyloid pathology is accompanied by inflammatory gliosis (microgliosis and astrogliosis detectable from 4 months), dendritic spine dystrophy and tau hyperphosphorylation (around 8 months). Cognitive behavioral disorders, and in particular of learning and spatial memory, are developed in around 6 to 8 months. This model was set-up and described by Rebecca Radde in 2006 (Radde et al., EMBO reports, 2006) and is widely used by the scientific community. This model is available in the animal facility of the Institut des Neurosciences de Grenoble and has been bred by the inventors since 2014. This solution is then diluted to 1 μg/μl in an isotonic solution containing 1% Pluronic F-127 and 0.9% NaCl. The animals are injected daily intraperitoneally at a dose of 5 mg/kg of body mass. Sterile 0.5 ml BD MicroFine syringes with no dead volume, equipped with a 30G (0.3 mm) needle are used for the injections. The carrier (10% DMSO, 1% Pluronic F-127, 0.9% NaCl) is used as a control and is also injected daily, according to the same procedure, into the WT and APP/PS1 control animals (carrier groups). The injection is started from the 14th postnatal day (appearance of the expression of the Thy1gene promoter in the hippocampus, triggering the overexpression of Aβ in the APP/PS1-21 murine model) Coronal sections of the hippocampus (thickness 300 μm) were prepared from APP/PS1-21 transgenic mice (1 month and 3 months old) or from WT mice from the same litter. The mice were sacrificed by decerebration and decapitation. The brain was quickly removed and sectioned in ice-cold ACSF containing (in mM) : 2.5 KCl, 7 MgCl2, 0.5 CaCl2, 1.2 NaHPO4, 25 NaHCO3, 11D-glucose and 234 sucrose bubbled with 95% of O2 and 5% of CO2 with a V[…] vibratome (Leica, Germany). The sections containing the hippocampus were placed in ACSF containing (in mM) : 126 NaCl, 2.5 KCl, 1.2 MgCl2, 2.5 CaCl2, 1.2 NaH2PO4 bubbled with 95% of O2 and 5% of CO2 and supplemented with 1 mM of sodium pyruvate at room temperature for a recovery period. Whole-cell recordings were performed on visually identified CA1 pyramidal neuron somas. The patch pipettes (4-6 MΩ) were filled with an internal solution containing (in mM): 105 K-gluconate, 30 KCL, 10 phosphocreatine, 10 HEPES, 4 ATP-Mg, 0.3 GTP-Tris, 0.3 EGTA, adjusted to pH 7.2 with KOH. Spontaneously excitatory postsynaptic currents (sEPSCs) were collected at a membrane holding potential of -60 mV which is close to the GABA reversal potential. All recordings were made at room temperature (22-24° C.) and only a single neuron was studied per section. The sEPSCs and their kinetics were analyzed, after a stabilization period of 10 minutes, 5 minutes from the recordings. Access resistance was constantly monitored and recordings were excluded from this study when this parameter varied more than 20% during the experiment. Recordings were analyzed using the Clampfit module of pClamp8 software (Molecular Devices, USA) with a single one at 20 pA to exclude miniature sEPSCs.

Assay [3] deals with models of neuropathic and inflammatory pain. Conditions: rats, oral administration 100 mg/kg; Eid et al. 2008; cited from earlier work.
Setting [4] is: APP/PS1-21 mice, 5 mg/kg i.p. daily from 14th postnatal day.
[5] abbreviates: WT control mice, chronic treatment.
Setting [6] is: APP/PS1-21 mice, 3 months, 5 mg/kg i.p. from 14th postnatal day.
Where [7] appears, read: WT mice, 3 months, chronic treatment 5 mg/kg i.p.

For the compound `CC(C)c1ccc(NC(=O)Cn2cnc3c2c(=O)n(C)c(=O)n3C)cc1` [HC030031, 2-(1,3-Dimethyl-2,6-dioxo-1,2,3,6-tetrahydro-7H-purin-7-yl)-N-(4-isopropylphenyl)acetamide], in assay [1] (setting [4]), the “area under the curve for latency to reach the escape box (learning phase, working memory)” value is 595.9±77.2 and the “first latency to the target area during the trial (reference memory)” value is 18.5 ± 4.2 s. Moreover, in assay [1] (setting [5]), the reference memory performance result is on record as “no impact” and the working memory performance result is listed as “no impact”. In assay [2] (1-month old mice, 5 mg/kg i.p. daily from 14th postnatal day), the sEPSC amplitude entry is “no impact”. For the same compound, in assay [2] (setting [6]), the “amplitude of sEPSCs” value came to 33.4±1.4 pA and the “frequency of sEPSCs” value is listed as 0.10±0.01 Hz. The “frequency of sEPSCs” value in assay [2] (APP/PS1-21 transgenic mice, 1 month, 5 mg/kg i.p. daily from 14th postnatal day) was found to be 0.10±0.02 Hz. Further, the “frequency of sEPSCs” value in assay [2] (WT litter mice, 1 month, 5 mg/kg i.p. daily from 14th postnatal day) was 0.10±0.04 Hz. Moreover, in assay [2] (setting [7]), the “amplitude of the sEPSCs” value is listed as “no effect” and the “frequency of the sEPSCs” value was “no effect”. In addition, the analgesic effect entry in assay [3] is “significant analgesic effect”.
